In patent US6737383B1, “Herbicidal oxadiazolidines” (priority 1999, dated 2004):

Experiments:
[1] = tested on: wild oat; experiment: Test B pre/postemergence wild oat; assay type: in vivo, Avena fatua
Summary of the method: (§1)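 Response is a visual 0-to-10 score relative to untreated plants, where 0 means no effect and 10 means complete control, taken twelve to sixteen days after application. Treatments went onto soil at planting and onto foliage of 1- to 4-leaf plants, using a surfactant-containing non-phytotoxic solvent.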

[2] = tested on: purple nutsedge; experiment: Test B pre/postemergence purple nutsedge; assay type: in vivo, Cyperus rotundus
Summary of the method: as §1

[3] = tested on: surinam grass; experiment: Test B pre/postemergence surinam grass; assay type: in vivo, Brachiaria decumbens
Summary of the method: as §1

[4] = tested on: smallflower flatsedge; experiment: Test B flood test smallflower flatsedge; assay type: in vivo, Cyperus difformis; details: Pre-emergence
Summary of the method: (§2)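 Each value is a visual injury score relative to controls, with 10 meaning complete control and 0 no effect. Evaluation took place twelve to sixteen days after the 2-leaf-stage plants were treated and kept in the greenhouse.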

[5] = tested on: cocklebur; experiment: Test B pre/postemergence cocklebur; assay type: in vivo, Xanthium strumarium
Summary of the method: as §1

[6] = tested on: corn; experiment: Test B pre/postemergence corn; assay type: in vivo, Zea mays
Summary of the method: as §1

[7] = tested on: bamyardgrass; experiment: Test B flood test barnyardgrass; assay type: in vivo, Echinochloa crus-galli; details: Pre-emergence
Summary of the method: as §2

[8] = tested on: sugar beet; experiment: Test B pre/postemergence sugar beet; assay type: in vivo, Beta vulgaris
Summary of the method: as §1

[9] = tested on: bedstraw; experiment: Test B pre/postemergence bedstraw; assay type: in vivo, Galium aparine; details: Postemergence, Rate 250 g/ha; scale 0 to 10, 0 is no effect, 10 is complete control
Summary of the method: as §1

[10] = tested on: pigweed; experiment: Test B pre/postemergence pigweed; assay type: in vivo, Amaranthus retroflexus
Summary of the method: as §1

[11] = tested on: rice; experiment: Test B flood test rice; assay type: in vivo, Oryza sativa; details: Pre-emergence
Summary of the method: as §2

[12] = tested on: velvetleaf; experiment: Test B pre/postemergence velvetleaf; assay type: in vivo, Abutilon theophrasti
Summary of the method: as §1

[13] = tested on: giant foxtail; experiment: Test B pre/postemergence giant foxtail; assay type: in vivo, Setaria faberii
Summary of the method: as §1

[14] = tested on: crabgrass; experiment: Test B pre/postemergence crabgrass; assay type: in vivo, Digitaria sanguinalis
Summary of the method: as §1

[15] = tested on: wheat; experiment: Test B pre/postemergence wheat; assay type: in vivo, Triticum aestivum
Summary of the method: as §1

[16] = tested on: morningglory; experiment: Test B pre/postemergence morningglory; assay type: in vivo, Ipomoea hederacea
Summary of the method: as §1

[17] = tested on: blackgrass; experiment: Test B pre/postemergence blackgrass; assay type: in vivo, Alopecurus myosuroides
Summary of the method: as §1

[18] = tested on: soybean; experiment: Test B pre/postemergence soybean; assay type: in vivo, Glycine max
Summary of the method: as §1

[19] = tested on: duck salad; experiment: Test B flood test duck salad; assay type: in vivo, Heteranthera limosa; details: Pre-emergence
Summary of the method: as §2

[20] = tested on: rape; experiment: Test B pre/postemergence rape; assay type: in vivo, Brassica napus
Summary of the method: as §1

[21] = Postemergence, Rate 500 g/ha, scale of 0 to 10 where 0 is no effect and 10 is complete control
[22] = Preemergence, Rate 62 g/ha, scale 0 to 10 (0 no effect, 10 complete control)
[23] = Preemergence, Rate 125 g/ha, scale of 0 to 10 where 0 is no effect and 10 is complete control
[24] = Preemergence, Rate 250 g/ha, scale 0 to 10, 0 is no effect, 10 is complete control
[25] = Preemergence, Rate 500 g/ha, scale of 0 to 10 where 0 is no effect and 10 is complete control
[26] = Rate 62 g/ha, Postemergence, scale of 0 to 10 where 0 is no effect and 10 is complete control
[27] = Postemergence, Rate 250 g/ha, scale 0 to 10, 0 is no effect, 10 is complete control
[28] = Postemergence, Rate 125 g/ha, scale 0 to 10, 0 is no effect, 10 is complete control
[29] = Preemergence, Rate 250 g/ha, scale of 0 to 10 where 0 is no effect and 10 is complete control
[30] = Rate 62 g/ha, flood test species, visual evaluation after twelve to sixteen days
[31] = Rate 250 g/ha, flood-test species, scale 0 to 10, 0 is no effect, 10 is complete control
[32] = Rate 500 g/ha, flood test species, scale 0 to 10 (0 no effect, 10 complete control)

## CC(C)Cn1c(=O)on(C(=O)N(c2ccc(F)cc2F)C(C)C)c1=O [Compound 394]
[1]; [21]
  Wild oats plant response rating: 6
[1]; [22]
  Plant response rating, Wild oats: 4
[1]; [23]
  Plant response rating, Wild oats: 6
[1]; [24]
  Wild oats plant response rating: 10
[1]; [25]
  Wild oats plant response rating: 10
[1]; [26]
  Wild oats plant response rating: 0
[2]; [27]
  Plant response rating, Nutsedge: 0
[2]; [22]
  Plant response rating, Nutsedge: 0
[2]; [23]
  Plant response rating, Nutsedge: 0
[2]; [24]
  Nutsedge plant response rating: 2
[2]; [25]
  Nutsedge plant response rating: 6
[2]; [26]
  Nutsedge plant response rating: 0
[3]; [28]
  Plant response rating, B. signalgrass: 1
[3]; [27]
  Plant response rating, B. signalgrass: 2
[3]; [21]
  B. signalgrass plant response rating: 9
[3]; [22]
  Plant response rating, B. signalgrass: 2
[3]; [23]
  Plant response rating, B. signalgrass: 5
[3]; [29]
  B. signalgrass plant response rating: 8
[3]; [25]
  B. signalgrass plant response rating: 10
[3]; [26]
  B. signalgrass plant response rating: 0
[4]; [30]
  Plant response rating, S. Flatsedge (0 to 10 scale, 0 is no effect, 10 is complete control): 4
[4]; [31]
  S. Flatsedge plant response rating: 8
[4]; [32]
  S. Flatsedge plant response rating: 8
[5]; [28]
  Plant response rating, Cocklebur: 0
[5]; [27]
  Plant response rating, Cocklebur: 0
[5]; [21]
  Cocklebur plant response rating: 4
[5]; [22]
  Plant response rating, Cocklebur: 0
[5]; [23]
  Plant response rating, Cocklebur: 0
[5]; [24]
  Cocklebur plant response rating: 0
[5]; [25]
  Cocklebur plant response rating: 0
[5]; [26]
  Cocklebur plant response rating: 0
[6]; [28]
  Plant response rating, Corn: 0
[6]; [27]
  Plant response rating, Corn: 0
[6]; [21]
  Corn plant response rating: 0
[6]; [22]
  Plant response rating, Corn: 0
[6]; [23]
  Plant response rating, Corn: 0
[6]; [24]
  Corn plant response rating: 3
[6]; [25]
  Corn plant response rating: 5
[6]; [26]
  Corn plant response rating: 0
[7]; [30]
  Plant response rating, Barnyardgrass (0 to 10 scale, 0 is no effect, 10 is complete control): 0
[7]; [31]
  Barnyardgrass plant response rating: 6
[7]; [32]
  Barnyardgrass plant response rating: 8
[8]; [27]
  Plant response rating, Sugarbeets: 1
[8]; [21]
  Sugarbeets plant response rating: 5
[8]; [22]
  Plant response rating, Sugarbeets: 0
[8]; [23]
  Plant response rating, Sugarbeets: 3
[8]; [24]
  Sugarbeets plant response rating: 4
[8]; [25]
  Sugarbeets plant response rating: 7
[8]; [26]
  Sugarbeets plant response rating: 0
[9]
  Plant response rating, Bedstraw: 5
[10]; [27]
  Plant response rating, Redroot pigweed: 2
[10]; [21]
  Redroot pigweed plant response rating: 7
[10]; [22]
  Plant response rating, Redroot pigweed: 1
[10]; [23]
  Plant response rating, Redroot pigweed: 2
[10]; [24]
  Redroot pigweed plant response rating: Redroot pigwee 6
[10]; [25]
  Redroot pigweed plant response rating: 10
[10]; [26]
  Redroot pigweed plant response rating: 0
[11]; [30]
  Plant response rating, Rice (0 to 10 scale, 0 is no effect, 10 is complete control): 1
[11]; [31]
  Rice plant response rating: 1
[11]; [32]
  Rice plant response rating: 1
[12]; [27]
  Plant response rating, Velvetleaf: 0
[12]; [21]
  Velvetleaf plant response rating: 3
[12]; [22]
  Plant response rating, Velvetleaf: 1
[12]; [23]
  Plant response rating, Velvetleaf: 5
[12]; [24]
  Velvetleaf plant response rating: 7
[12]; [25]
  Velvetleaf plant response rating: 7
[12]; [26]
  Velvetleaf plant response rating: 0
[13]; [28]
  Plant response rating, Giant foxtail: 7
[13]; [27]
  Plant response rating, Giant foxtail: 8
[13]; [21]
  Giant foxtail plant response rating: 9
[13]; [22]
  Plant response rating, Giant foxtail: 9
[13]; [23]
  Plant response rating, Giant foxtail: 10
[13]; [24]
  Giant foxtail plant response rating: 10
[13]; [25]
  Giant foxtail plant response rating: 10
[14]; [28]
  Plant response rating, Crabgrass: 2
[14]; [27]
  Plant response rating, Crabgrass: 8
[14]; [21]
  Crabgrass plant response rating: 9
[14]; [22]
  Plant response rating, Crabgrass: 9
[14]; [23]
  Plant response rating, Crabgrass: 10
[14]; [24]
  Crabgrass plant response rating: 10
[14]; [25]
  Crabgrass plant response rating: 10
[14]; [26]
  Crabgrass plant response rating: 2
[15]; [21]
  Wheat plant response rating: 4
[15]; [22]
  Plant response rating, Wheat: 0
[15]; [23]
  Plant response rating, Wheat: 1
[15]; [24]
  Wheat plant response rating: 6
[15]; [25]
  Wheat plant response rating: 9
[15]; [26]
  Wheat plant response rating: 0
[16]; [27]
  Plant response rating, Morningglory: 6
[16]; [21]
  Morningglory plant response rating: 7
[16]; [22]
  Plant response rating, Morningglory: 0
[16]; [23]
  Plant response rating, Morningglory: 0
[16]; [24]
  Morningglory plant response rating: 0
[16]; [25]
  Morningglory plant response rating: 2
[16]; [26]
  Morningglory plant response rating: 0
[17]; [27]
  Plant response rating, Blackgrass: 9
[17]; [22]
  Plant response rating, Blackgrass: 7
[17]; [23]
  Plant response rating, Blackgrass: 8
[17]; [29]
  Blackgrass plant response rating: 10
[17]; [25]
  Blackgrass plant response rating: 10
[17]; [26]
  Blackgrass plant response rating: 2
[18]; [27]
  Plant response rating, Soybean: 5
[18]; [21]
  Soybean plant response rating: 5
[18]; [22]
  Plant response rating, Soybean: 0
[18]; [24]
  Soybean plant response rating: 1
[18]; [25]
  Soybean plant response rating: 2
[18]; [26]
  Soybean plant response rating: 3
[19]; [30]
  Plant response rating, Ducksalad (0 to 10 scale, 0 is no effect, 10 is complete control): 0
[19]; [31]
  Ducksalad plant response rating: 3
[19]; [32]
  Ducksalad plant response rating: 3
[20]; [27]
  Plant response rating, Rape: 0
[20]; [22]
  Plant response rating, Rape: 0
[20]; [23]
  Plant response rating, Rape: 2
[20]; [24]
  Rape plant response rating: 7
[20]; [25]
  Rape plant response rating: 9
[20]; [26]
  Rape plant response rating: 0
